Series [1] relates to T1 Arabidopsis. Kind of series: T1 Arabidopsis response to postemergence glyphosate, visual % injury (dgt-28, dgt-32, dgt-33, dgt-3, dgt-7). The format is in vivo, Arabidopsis thaliana. The source says: Transgenic T1 Arabidopsis plants containing the dgt-28 transgene were sprayed with differing rates of glyphosate. Elevated rates were applied in this study to determine the relative levels of resistance (105, 420, 1,680 or 3,360 g ae/ha). A typical 1× usage rate of glyphosate that will control non-transformed Arabidopsis is 420 g ae/ha. […] The T1 Arabidopsis plants that were used in this study were variable copy number for the dgt-28 transgene. The low copy dgt-28 T1 Arabidopsis plants were self-pollinated and used to produce T2 plants.
The Arabidopsis T1 transformants were first selected from the background of untransformed seed using a glufosinate selection scheme. Three flats or 30,000 seed were analyzed for each T1 construct. The T1 plants selected above were molecularly characterized and representative plants with variable copy number were subsequently transplanted to individual pots and sprayed with various rates of commercial glyphosate as previously described. The response of these plants is presented in terms of % visual injury 2 weeks after treatment (WAT). […] An arithmetic mean and standard deviation is presented for each construct used for Arabidopsis transformation. The range in individual response is also indicated in the last column for each rate and transformation. Wild-type, non-transformed Arabidopsis (c.v. Columbia) served as a glyphosate sensitive control.

The subject of series [2] is T1 Arabidopsis. In words: dgt-31, dgt-32, dgt-33 v1 T1 Arabidopsis response to glyphosate, visual % injury 2 WAT. The format is in vivo, Arabidopsis thaliana. The text has this:
T1 plants were sampled and copy number analysis for the dgt-31, dgt-32, and dgt-33 v1 gene were completed. T1 plants were then assigned to various rates of glyphosate so that a range of copies were among each rate. For Arabidopsis, 26.25 g ae/ha glyphosate is an effective dose to distinguish sensitive plants from ones with meaningful levels of resistance. Elevated rates were applied to determine relative levels of resistance (105, 420, 1680, or 3360 g ae/ha).
All glyphosate herbicide applications were made by track sprayer in a 187 L/ha spray volume. Glyphosate used was of the commercial Durango dimethylamine salt formulation (480 g ae/L, Dow AgroSciences, LLC).
T1 plants selected above were subsequently transplanted to individual pots and sprayed with various rates of commercial glyphosate. Table 15 compares the response of dgt-31, dgt-32, and dgt-33 v1 and control genes to impart glyphosate resistance to Arabidopsis T1 transformants. Response is presented in terms of % visual injury 2 WAT. […] An arithmetic mean and standard deviation is presented for each treatment. The range in individual response is also indicated in the last column for each rate and transformation. Wild-type non-transformed Arabidopsis (cv. Columbia) served as a glyphosate sensitive control. […]

Series [3] has as its system untransformed B104 maize line. Kind of series: Growth inhibition dosage response of maize cells on glyphosate. It is filed as cell-based, Zea mays.
Another series concerns T0 corn. Kind of series: T0 dgt-28 corn postemergence glyphosate tolerance. It is filed as in vivo, Zea mays. On the procedure:
Zea mays dgt-28 transformation events (T0) were allowed to acclimate in the greenhouse and were grown until plants had transitioned from tissue culture to greenhouse growing conditions (i.e., 2-4 new, normal looking leaves had emerged from the whorl). Plants were grown at 27° C. under 16 hour light:8 hour dark conditions in the greenhouse. The plants were then treated with commercial formulations of DURANGO DMA™ (containing the herbicide glyphosate) with the addition of 2% w/v ammonium-sulfate. Herbicide applications were made with a track sprayer at a spray volume of 187 L/ha, 50-cm spray height. T0 plants were sprayed with a range of glyphosate from 280-4480 g ae/ha glyphosate, which is capable of significant injury to untransformed corn lines. A lethal dose is defined as the rate that causes >95% injury to the B104 inbred.
T0 events of dgt-28 linked with TraP4, TraP5, TraP8 and TraP23 were generated by Agrobacterium transformation and were allowed to acclimate under controlled growth chamber conditions until 2-4 new, normal looking leaves had emerged from the whorl. Plants were assigned individual identification numbers and sampled for copy number analyses of both dgt-28 and aad-1. Based on copy number analyses, plants were selected for protein expression analyses. […]

The subject of series [4] is T1 wheat, Bobwhite MPB26RH. In words: Wheat detailed phenotypic screen (glyphosate 420-3360 g ai/ha). Conditions: untransformed donor wheat. The format is in vivo, Triticum aestivum. On the procedure: Four replicates of 12 T1 seeds per selected event and eight replicates (12 seeds each) of the untransformed donor wheat line Bobwhite MPB26RH were sown in 85 mm pots and grown to the 2-leaf stage under well-watered conditions at 25° C. with supplementary lighting providing a 12 hour photoperiod. The pots were placed in a randomised design to allow environmental effects to be removed during data analysis. At the 2-leaf stage, plant length and number of leaves was recorded for each plant before spraying with glyphosate. The first, second, third and fourth replicate of T1 plants for each selected event and the untransformed donor wheat line were sprayed at a dose rate of 420, 840, 1680 and 3360 g ai/ha, respectively. The fifth, sixth, seventh and eighth replicate of untransformed donor wheat line (total 48 plants) were not sprayed. At 7, 14 and 21 days after spraying, the plants were scored for plant length, number of leaves and phenotypic response to glyphosate using the scoring scale in Table 37. Any morphological abnormalities were also recorded. For scoring, the scorer was “blinded” with regard to plant genotype and spray dose rate to prevent scoring bias. Plants with delayed germination and poor establishment (criteria: plant length <6 cm) at the pre-spray scoring were excluded from subsequent analyses.
This differentiation was maximal at 21 days and was observed across all glyphosate dose rates. Table 41. To assess the tolerance of the transgenic events to glyphosate at each spray dose rate, null T1 plants (i.e., plants not carrying the transgene) were excluded from subsequent analyses. T1 plants with a response score of less than three at 21 days after spraying were considered to have the null genotype. […]

Series [5] has as its system EPSP synthase (DGT enzymes). In words: Steady-state kinetic parameters of DGT enzymes (Km for PEP, kcat/Km). It is filed as biochemical.
Description: The enzyme activities of wild-type (WT) and mutant DGTs were measured by inorganic phosphate (Pi) production in a modified procedure described by Lanzetta et al. (1979) Anal. Bioch. […] Assays were performed in 96-well plate format in a total of 50 μL on a Spectra-Max 190 plate reader (Molecular Devices, Sunnyvale, Calif.). Typical assays contained 50 mM HEPES pH 7.5, 150 mM KCl, 2 mM DTT, and 1 mM S3P. […] Assays were initiated by addition of the DGT enzyme at concentrations that varied between 0.01-1 μM. Reactions were terminated by the addition of 235 μL of a 3:1 mixture of malachite green: ammonium molybdate solution. After complete color development (˜1 minute), the absorbance change at 660 nm was recorded and the amount of Pi formed was calculated from a standard curve. Control reactions lacking enzyme were used to correct for background absorbance. […] The data were fitted to the Michaelis-Menten equation which allowed for the determination of Km and Vmax (Equation 3) while IC50 was determined from Equation 4, where y is the relative activity and s is the Hill coefficient. Data were analyzed using GRAFIT™ version 5 software (Erithacus Software Limited, Horley, U.K.).
[6] abbreviates: 420 g ai/ha, Replicate 1, 10 plants pre-spray.
Setting [7] is: 840 g ai/ha, Replicate 2, 10 plants pre-spray.
Setting [8] is: 1680 g ai/ha, Replicate 3, 11 plants pre-spray.
The mark [9] stands for this setting: 3360 g ai/ha, Replicate 4, 10 plants pre-spray.

The values below come from US9382549B2, “Glyphosate resistant plants and associated methods” (DOW AGROSCIENCES LLC, priority 2012, dated 2016).

As to `O=C(O)CNCP(=O)(O)O` [glyphosate, N-(phosphonomethyl) glycine], the “typical 1× usage rate of glyphosate that will control non-transformed Arabidopsis” value in the series with T1 Arabidopsis [1] was 420 g ae/ha. Further, in the series on T1 Arabidopsis [2] (Arabidopsis), the “effective dose to distinguish sensitive plants from ones with meaningful levels of resistance” value is 26.25 g ae/ha. The “glyphosate concentration sufficient to inhibit cell growth” value in series [3] was not below 0.25 mM. Also, the “glyphosate rate controlling non-transformed plants” value in the series with T0 corn was not below 280 g ae/ha. The “No. surviving plants at 14 days after spraying” value in series [4] (setting [6]) is given as 0; in series [4] (setting [7]), 3; in series [4] (setting [8]) it was 0; in series [4] (setting [9]) it was 1. Besides, the “No. surviving plants at 21 days after spraying” value in series [4] (setting [6]), in series [4] (setting [7]), in series [4] (setting [8]) and in series [4] (setting [9]) was 0 throughout.

B1: DGT-31 (v1): Streptomyces EPSP synthase (GENBANK YP_004922608.1) (protein)
chain: MTVIDIPGSKSVTARALFLAAAADGTTTLLRPLHSDDTEGFTEGLTRLGYAVVREPDRWHIEGRPSGPAAADAEVHCRDGATTARFLPTLAAAAASGTYRFDASAQMRRRPLAPLTEALRTLGVDLRHDGAEGHHPLTIQASGVKGGGLTLDAGESSQYLTALLMLGPLTAEGLRIEVTELVSAPYVEITLAMMRGFGVEVVREGNTFTVPPGGYRATTYAIEPDASTASYFFAAAALTGREVTVPGLGTGALQGDLRFTEVLRRMDADVRTTSDSTTVRSDGRLAGLTVNMRDISDTMPTLAAIAPYASSPVRIEDVANTRVKECDRLEACAQNLRSMGITVRTGPDWIEIHPGTPRPTEIATHGDHRIVMSFAVAGLRTPGMSYDDPGCVRKTFPRFHEEFAAFVERSSAGE
modifications: DGT-31 protein
For B1, the “tolerance to glyphosate” value in the series with T1 Arabidopsis [2] (T1 Arabidopsis, DGT-31 with TraP23, DGT-32, DGT-33 with TraP8, TraP14, TraP24) is on record as “slight herbicide tolerance”.

B2: DGT-28 v1: native EPSP synthase of Streptomyces sviceus (SEQ ID NO:1), N-terminal 6×His tag, E. coli expressed (protein, listed as Streptomyces sviceus)
chain: MRGMPALSLPGSKSITARALFLAAAADGVTTLVRPLRSDDTEGFAEGLVRLGYRVGRTPDTWQVDGRPQGPAVAEADVYCRDGATTARFLPTLAAAGHGTYRFDASPQMRRRPLLPLSRALRDLGVDLRHEEAEGHHPLTVRAAGVEGGEVTLDAGQSSQYLTALLLLGPLTRQGLRIRVTDLVSAPYVEITLAMMRAFGVEVAREGDVFVVPPGGYRATTYAIEPDASTASYFFAAAALTPGAEVTVPGLGTGALQGDLGFVDVLRRMGAEVSVGADATTVRGTGELRGLTANMRDISDTMPTLAAIAPFASAPVRIEDVANTRVKECDRLEACAENLRRLGVRVATGPDWIEIHPGPATGAQVTSYGDHRIVMSFAVTGLRVPGISFDDPGCVRKTFPGFHEAFAELRRGIGS
modifications: N-terminal 6xHis tag
B2: the “catalytic efficiency” value in series [5] was found to be 132000 M⁻¹ s⁻¹. Moreover, the Km (in general, the concentration of substrate that gives half-maximal velocity) in series [5] (read-out: KM^PEP) stood at 91.6 µM.
